The results in this text go back to ChEMBL document CHEMBL3616373, “Identification of N-sulfonyl-tetrahydroquinolines as RORc inverse agonists” (Bioorg Med Chem Lett, 2015).

pEC50: −log10 of the molar value. Active and inactive are the calls of the source. The rule behind the calls is not given here.

For data set [1], the target named is T1, Oxysterols receptor LXR-alpha (Homo sapiens, UniProt Q13133).
T1 sequence (Q13133 whole entry): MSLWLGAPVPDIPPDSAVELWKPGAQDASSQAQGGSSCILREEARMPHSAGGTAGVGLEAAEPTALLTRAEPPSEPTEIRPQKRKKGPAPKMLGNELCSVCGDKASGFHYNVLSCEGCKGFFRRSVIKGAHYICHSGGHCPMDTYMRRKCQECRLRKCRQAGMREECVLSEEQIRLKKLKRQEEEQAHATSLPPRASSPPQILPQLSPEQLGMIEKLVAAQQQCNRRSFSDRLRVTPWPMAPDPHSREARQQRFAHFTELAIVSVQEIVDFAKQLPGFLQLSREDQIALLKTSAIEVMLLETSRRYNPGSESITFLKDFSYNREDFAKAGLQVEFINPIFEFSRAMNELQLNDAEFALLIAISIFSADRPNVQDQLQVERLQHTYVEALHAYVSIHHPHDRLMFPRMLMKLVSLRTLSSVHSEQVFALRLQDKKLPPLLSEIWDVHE
The data set is described as follows: Antagonist activity at GAL4-fused human LXRalpha expressed in HEK293 cells assessed as inhibition of T0901317-stimulated transcriptional activity after 20 hrs by dual-glo luciferase reporter gene assay. It is filed as cell-based.

The next data set addresses T2, Bile acid receptor (Homo sapiens, UniProt Q96RI1).
T2 sequence (Q96RI1 whole entry): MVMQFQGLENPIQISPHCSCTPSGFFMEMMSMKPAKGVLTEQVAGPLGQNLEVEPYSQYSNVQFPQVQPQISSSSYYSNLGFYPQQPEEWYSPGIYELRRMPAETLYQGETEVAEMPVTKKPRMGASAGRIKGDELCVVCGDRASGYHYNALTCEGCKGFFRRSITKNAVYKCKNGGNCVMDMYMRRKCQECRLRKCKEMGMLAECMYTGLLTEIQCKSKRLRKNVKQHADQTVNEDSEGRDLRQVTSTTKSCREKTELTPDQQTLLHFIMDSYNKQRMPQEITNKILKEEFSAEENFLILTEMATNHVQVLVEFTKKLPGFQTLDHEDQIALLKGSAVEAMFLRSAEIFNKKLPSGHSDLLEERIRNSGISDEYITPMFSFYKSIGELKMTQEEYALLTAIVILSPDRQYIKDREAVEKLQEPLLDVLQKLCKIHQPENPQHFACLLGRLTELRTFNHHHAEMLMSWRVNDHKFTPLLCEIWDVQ
The data set is described as follows: Antagonist activity at GAL4-fused human FXR expressed in HEK293 cells assessed as inhibition of T0901317-stimulated transcriptional activity after 20 hrs by dual-glo luciferase reporter gene assay. It is filed as cell-based.

Data set [2] addresses T3, Nuclear receptor subfamily 1 group I member 2 (Homo sapiens, UniProt O75469).
T3 sequence (O75469 whole entry): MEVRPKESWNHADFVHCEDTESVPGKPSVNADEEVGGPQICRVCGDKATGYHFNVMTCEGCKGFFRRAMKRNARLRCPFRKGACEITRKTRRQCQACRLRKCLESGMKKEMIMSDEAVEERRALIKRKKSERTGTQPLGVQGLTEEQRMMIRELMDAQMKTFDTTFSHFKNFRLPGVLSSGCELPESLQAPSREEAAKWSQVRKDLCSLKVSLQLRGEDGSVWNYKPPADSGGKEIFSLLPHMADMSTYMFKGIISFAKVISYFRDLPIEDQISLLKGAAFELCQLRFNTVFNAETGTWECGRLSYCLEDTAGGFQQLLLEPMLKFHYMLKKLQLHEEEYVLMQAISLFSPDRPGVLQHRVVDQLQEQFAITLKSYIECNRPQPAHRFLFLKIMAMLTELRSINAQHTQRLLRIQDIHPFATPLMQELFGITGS
The data set is described as follows: Antagonist activity at GAL4-fused human PXR expressed in HEK293 cells assessed as inhibition of T0901317-stimulated transcriptional activity after 20 hrs by dual-glo luciferase reporter gene assay. It is filed as cell-based.

The target in data set [3] is T4, Bile acid receptor (Homo sapiens) (UniProt Q96RI1).
T4 sequence (whole entry): T2 sequence (Q96RI1 whole entry)
The data set is described as follows: Agonist activity at GAL4-fused human FXR expressed in HEK293 cells assessed as activation of basal transcriptional activity up to 10 uM after 20 hrs by dual-glo luciferase reporter gene assay. It is filed as cell-based.

Data set [4] concerns HEK293. The data set is described as follows: Selectivity ratio of EC50 for GAL4-fused human RORa expressed in HEK293 cells to EC50 for GAL4-fused human RORc expressed in HEK293 cells. It is filed as cell-based.
Data set [5] deals with HEK293. The data set is described as follows: Selectivity ratio of EC50 for GAL4-fused human RORb expressed in HEK293 cells to EC50 for GAL4-fused human RORc expressed in HEK293 cells. It is filed as cell-based.
Data set [6] has as its system HEK293. The data set is described as follows: Selectivity ratio of EC50 for GAL4-fused human LXRalpha expressed in HEK293 cells to EC50 for GAL4-fused human RORc expressed in HEK293 cells. It is filed as cell-based.
In data set [7] the test system is HEK293. Nature of the data set: Selectivity ratio of EC50 for GAL4-fused human LXRbeta expressed in HEK293 cells to EC50 for GAL4-fused human RORc expressed in HEK293 cells. It is filed as cell-based.
Data set [8] deals with HEK293. Nature of the data set: Selectivity ratio of EC50 for GAL4-fused human PXR expressed in HEK293 cells to EC50 for GAL4-fused human RORc expressed in HEK293 cells. It counts as cell-based.
Data set [9] in a line: Apparent permeability across apical to basolateral side in MDCK cells at 100 uM after 60 mins by HPLC analysis. It is filed as ADME, cell-based, Canis lupus familiaris. The settings on record: dog.
The next data set deals with MDCK. Nature of the data set: Efflux ratio of apparent permeability across apical to basolateral side over basolateral to apical side in MDCK cells at 100 uM after 60 mins by HPLC analysis. It counts as ADME, cell-based, Canis lupus familiaris. The settings on record: dog, 1 h.
Data set [10] has as its target Nuclear receptor ROR-gamma. Nature of the data set: Inverse agonist activity at GAL4-fused human RORc expressed in HEK293 cells assessed as suppression of basal transcriptional activity after 20 hrs by dual-glo luciferase reporter gene assay.
The target of data set [11] is Nuclear receptor ROR-alpha (→). Nature of the data set: Inverse agonist activity at GAL4-fused human RORa expressed in HEK293 cells assessed as suppression of basal transcriptional activity after 20 hrs by dual-glo luciferase reporter gene assay.
The test system of data set [12] is PBMC. The data set is described as follows: Inhibition of IL-17 production in human PBMC after 48 hrs by Sandwich ELISA. It counts as functional, cell-based. The following applies: for pEC50: Homo sapiens, PBMC, 48 h.
For data set [13], the system named is PBMC. The data set is described as follows: Inhibition of IFNgamma production in human PBMC after 48 hrs by Sandwich ELISA. It counts as functional, cell-based.
Data set [14] concerns PBMC. Nature of the data set: Cytotoxicity against human PBMC assessed as effect on cell physiology after 48 hrs by CellTiter-Glo assay. It counts as cell-based.

Regarding `O=C(Nc1ccc2c(c1)N(S(=O)(=O)c1ccc(F)cc1)CC2)c1c(F)cccc1F`, the negative-log EC50 (pEC50) is 5.38 in data set [1]; 5.38 at Bile acid receptor; 5.32 in data set [2]; 6.55 in data set [10]; 4.92 in data set [11]. Further, the outcome in data set [3] was inactive. For the same molecule, the Ratio EC50 in the data set on HEK293 [4] stood at 28; with HEK293 [5], 28; with HEK293 [6] it was 15; in the data set with HEK293 [7], 15; with HEK293 [8], 15. Moreover, the Papp A→B at 1 h, 100 µM in data set [9] came out at 16 ×10⁻⁶ cm/s. For the same molecule, the Ratio in the data set on MDCK is reported as under 2.
For the molecule `O=C(Nc1ccc2c(c1)N(S(=O)(=O)c1ccc(F)cc1)CCC2)c1ccccc1Cl`, the negative logarithm of the EC50 (pEC50) in data set [1] was 5.59; on Bile acid receptor, 5.23; in data set [2], 6.03. Further, the outcome in data set [3] was inactive. For the same molecule, in [9], the apical-to-basolateral permeability (Papp A→B) at 1 h, 100 µM worked out at 12 ×10⁻⁶ cm/s.
Consider `O=C(Nc1ccc2c(c1)N(S(=O)(=O)c1ccc(F)cc1)CCC2)c1c(F)cccc1Cl`, for which the pEC50 was 5.28 at Bile acid receptor; 6.09 in data set [2]; 5.68 in the data set on PBMC [12]; under 4.70 in the data set on PBMC [13]; under 4.70 in the data set on PBMC [14]. For the same molecule, in data set [3], the result was inactive. Besides, the apparent permeability from apical to basolateral (Papp A→B) at 1 h, 100 µM in data set [9] came to 12 ×10⁻⁶ cm/s. In addition, the “%max” value in the data set on PBMC [12] is 63%.
Take `O=C(Nc1ccc2c(c1)N(S(=O)(=O)c1ccc(F)cc1)CCC2)c1c(F)cccc1F`: the negative-log EC50 (pEC50) in data set [1] is 5.39; on Bile acid receptor, 5.12; in data set [2], 5.96; with PBMC [12], 5.85; in the data set with PBMC [13] it was under 4.70; in the data set with PBMC [14], under 4.70. The outcome in data set [3] was inactive. In addition, in data set [9], the Papp A→B at 1 h, 100 µM came to 22 ×10⁻⁶ cm/s. Moreover, in the data set with PBMC [12], the “%max” value is on record as 78%.
